# According to patent US4622317A, “Treatment of skin over androgenicity using compositions containing pregnenolone” (priority 1985, dated 1986):
# How the values were obtained:
# [1] = test system: flank organ of female hamsters; details: topical, 5 days/week for 2 weeks; cited from earlier work
# [2] = test system: female hamster flank organs; assay: stimulation of female hamster flank organs by topical DHA; assay type: in vivo; details: 12 μg, 60 μg, 120 μg to right side, 7 days/week for 6 weeks, female hamsters
# Text: (§1) The effects of hormones and hormonally active substances on sebaceous glands can also be evaluated using the Syrian hamster flank organs as an animal model. The results of experiments using hamsters are valuable inasmuch as they can provide in vivo confirmation of the in vitro experiments like those described above using rat preputial gland. The flank organs, also called the costovertebral spot or the costovertebral organ, are sebaceous structures located on each flank of the animal. Like the sebaceous glands of the human and the preputial gland of the rat they are androgen dependent (Voigt and Hsia, 1973; Gomez and Frost, 1969; Frost and Gomez, 1973).
# The organ in the mature male hamster measures approximately 8 mm in diameter, is heavily pigmented and is covered with coarse dark hairs (Voigt and Hsia, 1973). The organ of the female animal is undeveloped, measuring about 2 mm in diameter, lightly pigmented, without dark hairs, and is at times difficult to see. The anatomical and histological changes in this organ in response to androgens have been described by Hamilton and Montagna (1950).
# Before testing the anti-androgenic properties of pregnenolone on hamster flank organs and relying on the results, a centrally important question therefore needed to be answered--Could DHA be shown to stimulate growth in the flank organs? […]
# [3] = background statement; cited from earlier work
# [4] = test system: skin; details: studies by the inventor and other laboratories; cited from earlier work
# [5] = test system: skin / body of acne patients; details: cited from earlier work; for skin irritation and peeling: topical application
# [6] = test system: 3β-hydroxysteroid dehydrogenase Δ^4-5 -isomerase (3βHSD); assay: in vitro inhibition of 3βHSD conversion of DHA in rat preputial gland homogenate; assay type: biochemical, rat (female Sprague-Dawley); details: rat preputial gland homogenate (2 mg protein), 1,2-^3 H-DHA + 100 nmoles DHA, 37° C.; four separate incubations; inhibitor concentration not given
# Protocol: To assess the androgen inhibiting activity of pregnenolone, rat preputial gland was employed to investigate the in vitro androgenic action of DHA. […] A pair of the glands are situated in the prepuce of the rat of either sex weighing between 125-200 mg in an average 200 g rat, being slightly larger in the male animal. The animals employed were female Sprague-Dawley rats, 10-12 weeks old and weighing 225-300 g.
# The experimental format, stated broadly, was to excise preputial glands from rats and prepare a homogenate therefrom. […] The metabolites were quantitated by removal from the thin layer plate and counting in a scintillation counter. By determining the extent of metabolite formation, the extent of inhibition of 3βHSD could be correspondingly determined. […]
# Experiments were initially conducted to ensure that DHA and its metabolites could be separated chromatographically. […] The position of the steroid can be readily traced with this method. […] Elution and quantitative evaluation of steroids can be effected after removal of the iodine. […] For quantitation the plates were then scraped in 1 cm sections for radioassay of ^3 H in a Packard Tri-Carb liquid scintillation counter. Silica gel H blanks and ^3 H-standards (Packard Instrument Co.) were also counted. […]
# [7] = test system: 3βHSD (female hamster flank organs); assay: in vivo inhibition of conversion of 1,2-^3 H-DHA to metabolites in flank organs of female hamsters; design: species or system female Syrian Golden Hamster; details: topical 1200 μg/0.1 ml acetone to each flank organ for 3 days
# Text: as §1
# Hamster flank organs were accordingly used to test in vivo the androgenic inhibitory properties of pregnenolone.
# Female Syrian Golden Hamsters were used in this experiment. […]
# On the afternoon of day 3, an intracardial injection of 1,2-^3 H-DHA (5μCi/0.1 ml saline buffer solution) was given to both experimental groups anesthetized with ether. […] Each organ was then placed in a 16 mm×150 mm test tube containing methanol and was homogenized, extracted and analyzed for steroid metabolites by separating the metabolites using thin layer chromatography as described above, scraping the thus separated metabolites from the thin layer plates, and quantitating using a scintillation counter. […]
# Results are shown in FIG. 2 expressed as DPM/mg tissue.
# [8] = test system: acne vulgaris; assay type: in vivo, human
# Protocol: The following experiment was conducted and is a typical trial. In a double-blind clinical trial 23 patients with acne vulgaris volunteered to participate. Fifteen patients (11 females and 4 males) were given a 1% solution of pregnenolone dissolved in isopropanol containing 1% glycerol, and 8 patients (5 females and 3 males) were given a 1% solution of glycerol in isopropanol. Neither the patients nor the attending dermatologist knew whether or not the dispensed solution contained pregnenolone. The patients were instructed to stop using their previous medications for two weeks and then to apply the given solution to their faces twice daily. They were reexamined biweekly.
# [9] = solubility of pregnenolone; assay type: physicochemical
# [10] = 1% pregnenolone in isopropanol containing 1% glycerol, twice daily, twelve weeks, 4 of 15 patients
compound,measurement,setting,value
C[C@]12CCC(=O)C=C1CC[C@@H]1[C@@H]2CC[C@@]2(C)[C@H]1CC[C@]2(C)O [methyltestosterone],sebaceous gland growth and pigmentation of flank organ,[1],unilateral stimulation of sebaceous gland growth and pigmentation
"C[C@]12CC[C@H](O)CC1=CC[C@@H]1[C@@H]2CC[C@]2(C)C(=O)CC[C@@H]12 [DHA, dehydroepiandrosterone]",stimulation of flank organs,[2],"not only a local stimulation, but stimulation of both flank organs, hence systemic stimulation"
same,androgenic / hormonal activity,[3],only weak androgenic activity
same,metabolism in the skin,[4],readily metabolized in the skin to form potent androgenic steroids
C[C@]12CC[C@@H](O)C[C@@H]1CC[C@@H]1[C@@H]2CC[C@]2(C)C(=O)CC[C@@H]12 [androsterone],sebaceous gland growth and pigmentation of flank organ,[1],did not cause flank organ growth or increased pigmentation
"C[C@]12CCC(=O)C=C1CC[C@@H]1[C@@H]2CC[C@]2(C)C(=O)CC[C@@H]12 [androstenedione, Δ^4 -androstenedione]",sebaceous gland growth and pigmentation of flank organ,[1],unilateral stimulation of sebaceous gland growth and pigmentation
"C[C@]12CCC(=O)C[C@@H]1CC[C@@H]1[C@@H]2CC[C@]2(C)[C@@H](O)CC[C@@H]12 [DHT, dihydrotestosterone]",sebaceous gland growth and pigmentation of flank organ,[1],unilateral stimulation of sebaceous gland growth and pigmentation
CC1=C(/C=C/C(C)=C/C=C/C(C)=C/C(=O)O)C(C)(C)CCC1 [retinoic acid],skin irritation and peeling,[5],irritates the skin and causes the skin to peel
"CC1=C(/C=C/C(C)=C/C=C/C(C)=C\C(=O)O)C(C)(C)CCC1 [Accutane, 13-Cis retinoic acid]",blood lipids and liver toxicity,[5]; internal use,alters blood lipids and causes liver toxicity
CC(=O)[C@H]1CC[C@H]2[C@@H]3CCC4=CC(=O)CC[C@]4(C)[C@H]3CC[C@]12C [progesterone],sebaceous gland growth and pigmentation of flank organ,[1],did not cause flank organ growth or increased pigmentation
O=C(OOC(=O)c1ccccc1)c1ccccc1 [benzoyl peroxide],skin irritation and peeling,[5],irritates the skin and causes the skin to peel
C[C@]12CC[C@H]3[C@@H](CCC4=CC(=O)CC[C@@]43C)[C@@H]1CC[C@@H]2O [testosterone],sebaceous gland growth and pigmentation of flank organ,[1],unilateral stimulation of sebaceous gland growth and pigmentation
"CC(=O)[C@H]1CC[C@H]2[C@@H]3CC=C4C[C@@H](O)CC[C@]4(C)[C@H]3CC[C@]12C [pregnenolone, Δ^5-pregnene-3β-ol-20-one]",inhibition of 3βHSD for DHA (percentage of total Δ^4 -3-keto product formed in absence of inhibitor),[6],91-92%
same,"total metabolites converted from 1,2-^3 H-DHA, treated versus control","[7]; DHA-stimulated, 1 hour after intracardial ^3 H-DHA (5 μCi)",Significant differences (P<0.01)
same,"formation of testosterone, DHT and androstanediol, control versus treated",[7]; DPM/mg tissue in FIG. 2,"Control hamsters, not treated with inhibitor, show greater formation of testosterone, DHT and androstanediol"
same,patients with reduction of oiliness,"[8]; 1% pregnenolone in isopropanol containing 1% glycerol, twice daily, twelve weeks, 2 of 15 patients",13%
same,patients with no change in lesions or oiliness,[8]; [10],26%
same,patients with slight reduction of the number of lesions and a reduction in the oiliness of the skin,[8]; [10],26%
same,"patients with definite improvement, with reduction in the size and number of lesions","[8]; 1% pregnenolone in isopropanol containing 1% glycerol, twice daily, twelve weeks, 5 of 15 patients",33%
same,beneficial effect in acne; prevention of new lesions,"[8]; conclusion of the trial, continued use","beneficial effect in the treatment of acne, and that continued use of pregnenolone prevents the development of new lesions"
same,irritation or discomfort caused by topical application,"[8]; human, in vivo",no complaint of irritation or discomfort
same,efficacy and acceptability compared with previous medications (patients' claims),[8]; patients who had used other medications previously,more effective and more acceptable
same,solubility in alcohols,"[9]; alcohols, such as isopropanol or mixtures with longer (C4 -C10) alkane or alkene chains",soluble
same,solubility in water,[9]; water,insoluble in water
same,androgenic / hormonal activity,[3],no known hormonal activity of its own
C[C@]12CC[C@H](O)C[C@@H]1CC[C@@H]1[C@@H]2CC[C@]2(C)C(=O)CC[C@@H]12 [epiandrosterone],sebaceous gland growth and pigmentation of flank organ,[1],did not cause flank organ growth or increased pigmentation
